Assay results published in patent US20260001928A1 (CORTERIA PHARMACEUTICALS, priority 2022, published 2026).
*1 amine or outer side, *2 acyl side, *3 side chain or, on linkers, in order; H or OH if unused. Where a SMILES comes first, the peptide text is derived from it. Side-chain parts run from the residue outwards. [ ]: non-standard residue; d: D form. The star is where a group is joined. C20 diacid = O=C(O)CCCCCCCCCCCCCCCCCCC(=O)*; γGlu = O=C(O)[C@H](CCC(=O)[*:2])N[*:1]; NMeI = CC[C@H](C)[C@H](NC)C(=O)O; AEEA = NCCOCCOCC(=O)O; Aib = CC(C)(N)C(=O)O

Tests used:
[1] = Dog PLM; conditions: 37° C., up to 2 hours
[2] = Rat PLM; conditions: male Sprague Dawley rats, 37° C., up to 2 hours
[3] = Human PLM; conditions: 37° C., up to 2 hours
[4] = In vitro subcutaneous tissue supernatant (SCts) stability and metabolite identification, rat; format: in vitro ADME; design: remaining at 2 h: dose or concentration left out as unconfirmed; conditions: male, Sprague Dawley; rat subcutaneous tissue supernatant (SCts), 37° C, 2 h
[5] = In vitro plasma stability, human plasma; format: in vitro ADME; design: dose or concentration left out as unconfirmed; conditions: Human PLM, 37° C.
Method: (§1) In vitro plasma metabolic stability was studied in male Sprague Dawley rats and human. Test compounds were incubated at 3 M for 2 hours at 37° C. At each time point (0, 0.25, 1 and 2 h), samples were prepared for analysis by means of a single step protein precipitation technique by adding 150 μL of ethanol, 0.1% formic acid to 50 μL aliquots of plasma. Samples were mixed by vortex for homogeneity and then subjected to centrifugation at 14000 rpm for 15 min. The supernatant (100 μL) was collected, diluted with 100 μL of water, 0.1% formic acid and analyzed by LC-HRMS (TripleTOF 6600+, AB Sciex). For each test compound, the area ratios at each time point were compared to the 0 h area ratio and converted to a percentage remaining.

[6] = Pharmacokinetics in male Sprague Dawley rats after subcutaneous administration; format: in vivo; conditions: plasma, rat, IV, 0.05 mg/kg
[7] = In vitro plasma stability, rat plasma; format: in vitro ADME; design: remaining at 2 h: dose or concentration left out as unconfirmed; conditions: male, Sprague Dawley, plasma; Rat PLM, 37° C.
Method: as §1

[8] = in vitro; design: dose or concentration left out as unconfirmed; conditions: dog, plasma
[9] = target: T1, CFR1R receptor (Homo sapiens, UniProt P34998); test: Activity at anti-target CFR1R receptor, cAMP assay in CRF1R-overexpression CHO-K1 cells; format: cell-based; conditions: 100% = Sauvagine at 100 nM; for EC50: cAMP
T1 construct: host or cells: CHO-K1 (clone 2)
T1 sequence (P34998 24-415): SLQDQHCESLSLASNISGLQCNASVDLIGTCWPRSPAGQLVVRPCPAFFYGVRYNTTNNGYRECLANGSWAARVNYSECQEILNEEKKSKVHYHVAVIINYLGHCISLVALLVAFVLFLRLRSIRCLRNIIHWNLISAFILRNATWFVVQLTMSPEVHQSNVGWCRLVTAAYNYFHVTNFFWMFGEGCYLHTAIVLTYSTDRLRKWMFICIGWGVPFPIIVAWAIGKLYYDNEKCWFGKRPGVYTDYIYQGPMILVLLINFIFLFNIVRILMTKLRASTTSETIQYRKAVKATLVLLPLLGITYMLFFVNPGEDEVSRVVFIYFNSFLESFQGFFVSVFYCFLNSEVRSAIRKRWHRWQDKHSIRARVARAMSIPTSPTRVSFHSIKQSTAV
Summary of the method: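 Grow clone 2 to near confluence at 37° C. under 5% CO2 in F12 (Hams) with 10% FBS and G418, harvest, and freeze in 10% DMSO. Thaw and plate at 4000 cells/well. Then proceed per the TeloHAEC method, normalising to Sauvagine 100 nM as maximum.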

[10] = test system: Sprague Dawley rats; test: Effect on systolic blood pressure, telemetry in Sprague Dawley rats; format: in vivo, rat; conditions: 0.1 mg/kg SC; for Systolic blood pressure (Mean) % change from baseline, 8 h / Systolic blood pressure (Mean) % change from baseline, 12 h / Systolic blood pressure (Mean) % change from baseline, 24 h: n=2; for Duration of action: last time point with an effect on BP still observed
Summary of the method: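 Values are % change from a 1 h pre-dose baseline in systolic pressure, tracked by telemetry for up to 48 hours after a single 0.1 mg/kg subcutaneous dose. Rats (Sprague Dawley, n=2 per peptide) carried aortic catheters and recovered at least 10 days post-surgery; duration of action marks the last time point still showing an effect.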

[11] = Chemical stability in buffer (pH 7.4 / pH 4.5), % purity loss; format: physicochemical; conditions: 100 mM phosphate buffer pH 7.4; 40° C. vs 5° C.; 14 or 28 days
Summary of the method: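 LC-UV gave % loss after 14 or 28 days of storage at 5 °C or 40 °C. Samples were diluted supernatants from compound incubated 1 h at room temperature at 10 mg/mL target, in 100 mM acetate pH 4.5 or 100 mM phosphate pH 7.4.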

[12] = target: T2, human CRF2a receptor (Homo sapiens, UniProt Q13324); test: Activity at human CRF2a receptor, cAMP functional assay in TeloHEAC cells; format: cell-based; conditions: TeloHEAC cells stably expressing human CRF2a receptor, relative to urocortin 2 (100 nM = 100%)
T2 construct: expressed in transfected cells; host or cells: TeloHEAC cells
T2 sequence (Q13324 1-411): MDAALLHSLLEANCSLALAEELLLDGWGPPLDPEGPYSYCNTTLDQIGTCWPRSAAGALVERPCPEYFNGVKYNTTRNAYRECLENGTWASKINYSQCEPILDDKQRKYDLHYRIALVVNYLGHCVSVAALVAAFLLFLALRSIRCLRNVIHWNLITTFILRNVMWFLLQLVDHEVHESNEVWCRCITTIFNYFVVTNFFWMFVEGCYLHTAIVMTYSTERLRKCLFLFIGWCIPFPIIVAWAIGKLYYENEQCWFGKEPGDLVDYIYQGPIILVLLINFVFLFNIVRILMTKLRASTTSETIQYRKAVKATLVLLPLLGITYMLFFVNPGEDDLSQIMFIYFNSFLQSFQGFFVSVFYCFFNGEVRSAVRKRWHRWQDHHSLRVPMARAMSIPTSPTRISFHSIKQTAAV
Summary of the method: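 TeloHEAC cells stably expressing human CRF2a (10000 cells/well) were treated with 16-point 1:2 compound dilutions in HBSS/20 mM HEPES with IBMX for 30 min at 37° C. cAMP was read by HTRF (665/620 nm ratio). EC50 was the concentration giving 50% activation, with 100 nM urocortin 2 set as 100%.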

[13] = Minipig PLM; conditions: 37° C., up to 2 hours

Compound | percent remaining [1] [% remaining at 2 hours] | not cleaved [2] [% remaining at 2 hours] | not cleaved [3] [% remaining at 2 hours] | remaining at 2 h [4] [%] | remaining at 2 h [5] [%] | AUC(0-t) [6] [ng·h/mL] | half-life [6] [h] | remaining at 2 h [7] [%] | remaining at 2 h [8] [%] | Emax (% I) [9] [% I] | EC50 [9] [pM] | Systolic blood pressure (Mean) % change from baseline, 8 h [10] [%] | Systolic blood pressure (Mean) % change from baseline, 12 h [10] [%] | Systolic blood pressure (Mean) % change from baseline, 24 h [10] [%] | Duration of action [10] [h] | Buffer stability pH 7.4 % purity loss [11] | EC50 [12] [pM] | not cleaved [13] [% remaining at 2 hours]
NMeIVLSLDvPIKLK*KILLEQEKQKEQREQAETNAibQILAQV-NH2 [218] | 102 | 109 | 99 |  |  |  |  |  |  |  |  |  |  |  |  |  |  | 
CC[C@H](C)[C@H](NC)C(=O)N[C@H](C(=O)N[C@@H](CC(C)C)C(=O)N[C@@H](CO)C(=O)N[C@@H](CC(C)C)C(=O)N[C@@H](CC(=O)O)C(=O)N[C@@H](C(=O)N1CCC[C@H]1C(=O)N[C@H](C(=O)N[C@@H](CCCCN)C(=O)N[C@@H](CC(C)C)C(=O)N[C@@H](CCCCNC(=O)COCCOCCNC(=O)CC[C@H](NC(=O)CCCCCCCCCCCCCCCCCCC(=O)O)C(=O)O)C(=O)N[C@@H](CCCCN)C(=O)N[C@H](C(=O)N[C@@H](CC(C)C)C(=O)N[C@@H](CC(C)C)C(=O)N[C@@H](CCC(=O)O)C(=O)N[C@@H](CCC(N)=O)C(=O)N[C@@H](CCC(=O)O)C(=O)N[C@@H](CCCCN)C(=O)N[C@@H](CCC(N)=O)C(=O)N[C@@H](CCCCN)C(=O)N[C@@H](CCC(=O)O)C(=O)N[C@@H](CCC(N)=O)C(=O)N[C@@H](CCCNC(=N)N)C(=O)N[C@@H](CCC(=O)O)C(=O)N[C@@H](CCC(N)=O)C(=O)N[C@@H](C)C(=O)N[C@@H](CCC(=O)O)C(=O)N[C@H](C(=O)N[C@@H](CC(N)=O)C(=O)NC(C)(C)C(=O)N[C@@H](CCC(N)=O)C(=O)N[C@H](C(=O)N[C@@H](CC(C)C)C(=O)N[C@@H](C)C(=O)N[C@@H](CCC(N)=O)C(=O)N[C@H](C(N)=O)C(C)C)[C@@H](C)CC)[C@@H](C)O)[C@@H](C)CC)[C@@H](C)CC)C(C)C)C(C)C [compound 233] (H-[NMeI]VLSLD[dV]PIKLK([AEEA-γGlu-C20 diacid])KILLEQEKQKEQREQAETN[Aib]QILAQV-NH2) |  |  |  | 56 | 100 | 4880 | 9 | 106 | 99 | 8 | > 250000 | 1 | −8 | −11 | >24 | 0.0/Not Tested % | 120 | 
CC[C@H](C)[C@H](NC)C(=O)N[C@H](C(=O)N[C@@H](CC(C)C)C(=O)N[C@@H](CO)C(=O)N[C@@H](CC(C)C)C(=O)N[C@@H](CC(=O)O)C(=O)N[C@@H](C(=O)N1CCC[C@H]1C(=O)N[C@H](C(=O)N[C@@H](CCCCN)C(=O)N[C@@H](CC(C)C)C(=O)N[C@@H](CCCCNC(=O)COCCOCCNC(=O)COCCOCCNC(=O)CC[C@H](NC(=O)CCCCCCCCCCCCCCCCCCC(=O)O)C(=O)O)C(=O)N[C@@H](CCCCN)C(=O)N[C@H](C(=O)N[C@@H](CC(C)C)C(=O)N[C@@H](CC(C)C)C(=O)N[C@@H](CCC(=O)O)C(=O)N[C@@H](CCC(N)=O)C(=O)N[C@@H](CCC(=O)O)C(=O)N[C@@H](CCCCN)C(=O)N[C@@H](CCC(N)=O)C(=O)N[C@@H](CCCCN)C(=O)N[C@@H](CCC(=O)O)C(=O)N[C@@H](CCC(N)=O)C(=O)N[C@@H](CCCNC(=N)N)C(=O)N[C@@H](CCC(=O)O)C(=O)N[C@@H](CCC(N)=O)C(=O)N[C@@H](C)C(=O)N[C@@H](CCC(=O)O)C(=O)N[C@H](C(=O)N[C@@H](CC(N)=O)C(=O)NC(C)(C)C(=O)N[C@@H](CCC(N)=O)C(=O)N[C@H](C(=O)N[C@@H](CC(C)C)C(=O)N[C@@H](C)C(=O)N[C@@H](CCC(N)=O)C(=O)N[C@H](C(N)=O)C(C)C)[C@@H](C)CC)[C@@H](C)O)[C@@H](C)CC)[C@@H](C)CC)C(C)C)C(C)C [compound 237] (H-[NMeI]VLSLD[dV]PIKLK([AEEA-AEEA-γGlu-C20 diacid])KILLEQEKQKEQREQAETN[Aib]QILAQV-NH2) |  |  |  | 60 | 83 | 4160 | 11 | 84 | 86 | 6 | > 250000 |  |  |  |  | 0.0/Not Tested % | 410 | 
CC[C@H](C)[C@H](NC(C)=O)C(=O)N[C@H](C(=O)N[C@@H](CC(C)C)C(=O)N[C@@H](CO)C(=O)N[C@@H](CC(C)C)C(=O)N[C@@H](CC(=O)O)C(=O)N[C@@H](C(=O)N1CCC[C@H]1C(=O)N[C@H](C(=O)N[C@@H](CCCCN)C(=O)N[C@@H](CC(C)C)C(=O)N[C@@H](CCCCNC(=O)CC[C@H](NC(=O)CCCCCCCCCCCCCCCCCCC(=O)O)C(=O)O)C(=O)N[C@@H](CCCCN)C(=O)N[C@H](C(=O)N[C@@H](CC(C)C)C(=O)N[C@@H](CC(C)C)C(=O)N[C@@H](CCC(=O)O)C(=O)N[C@@H](CCC(N)=O)C(=O)N[C@@H](CCC(=O)O)C(=O)N[C@@H](CCCCN)C(=O)N[C@@H](CCC(N)=O)C(=O)N[C@@H](CCCCN)C(=O)N[C@@H](CCC(=O)O)C(=O)N[C@@H](CCC(N)=O)C(=O)N[C@@H](CCCNC(=N)N)C(=O)N[C@@H](CCC(=O)O)C(=O)N[C@@H](CCC(N)=O)C(=O)N[C@@H](C)C(=O)N[C@@H](CCC(=O)O)C(=O)N[C@H](C(=O)N[C@@H](CC(N)=O)C(=O)NC(C)(C)C(=O)N[C@@H](CCC(N)=O)C(=O)N[C@H](C(=O)N[C@@H](CC(C)C)C(=O)N[C@@H](C)C(=O)N[C@@H](CCC(N)=O)C(=O)N[C@H](C(N)=O)C(C)C)[C@@H](C)CC)[C@@H](C)O)[C@@H](C)CC)[C@@H](C)CC)C(C)C)C(C)C [compound 213] (Ac-IVLSLD[dV]PIKLK([γGlu-C20 diacid])KILLEQEKQKEQREQAETN[Aib]QILAQV-NH2) |  |  |  | 74 | 99 |  |  | 99 | 102 | 27 | > 250000 | −10 | −18 | −13 | >24 | −0.1/Not Tested % | 220 | 
NMeIVLSLDvPIKLK*KILLEQEKQKKQREQAETNAibQILAQV-NH2 |  | 128 | 91 |  |  |  |  |  |  |  |  |  |  |  |  |  |  | 126
Ac-IVLSLDvPIKLK*KILLEQEKQKKQREQAETNAibQILAQV-NH2 |  | 108 | 93 |  |  |  |  |  |  |  |  |  |  |  |  |  |  | 110
